Key:
[1] = target: RAC-beta serine/threonine-protein kinase (Homo sapiens) (UniProt P31751); assay: Inhibition of N-terminal GST-tagged human AKT2 catalytic domain (120 to 481 residues) co-expressed with His-tagged PDK1 (1 to 556 residues) in baculovirus-infected Sf21 cells using Crosstide as substrate at 1 uM in presence of ATP by Mobility shift assay
[2] = target: Protein kinase C iota type (Homo sapiens) (UniProt P41743); assay: Inhibition of N-terminal GST-fused human full length PKC-iota (1 to 587 residues ) expressed in baculovirus expression system using PKC peptide as substrate at 1 uM in presence of ATP by Mobility shift assay
[3] = target: Interleukin-1 receptor-associated kinase 1 (Homo sapiens) (UniProt P51617); assay: Inhibition of N-terminal GST-fused truncated human IRAK1 (194 to 712 residues) expressed in baculovirus expression system using SRPKtide as substrate at 1 uM in presence of ATP by IMAP assay
[4] = Toxicity in Crl:CD Sprague-Dawley rat assessed as urea nitrogen level in blood at 100 mg/kg, po administered daily for 14 days (reference value: 16.7+/-2.39 mg/dL); format: organism-based; settings: in vivo, 336 h, time 14 day
[5] = Toxicity in Crl:CD Sprague-Dawley rat assessed as decrease of lymphocytes in thymus cortex at 100 mg/kg, po administered daily for 14 days by hematoxylin and eosin staining based analysis; format: organism-based; settings: in vivo, 336 h, time 14 day
[6] = Antitumor activity against human HCC1500 cells assessed as cell growth inhibition treated for 10 to 15 days; format: functional; settings: time 10-15 day
[7] = tested on: SJRH30; assay: Antitumor activity against human SJRH30 cells assessed as cell growth inhibition treated for 10 to 15 days; format: functional; settings: time 10-15 day
[8] = target: Histone-lysine N-methyltransferase EHMT2 (Homo sapiens, UniProt Q96KQ7); assay: Inhibition of human G9a using Histone H3 (1-21 residues) and [3H]SAM as substrate incubated for 30 mins to 1 hr by HotSpot kinase assay
[9] = tested on: MDA-MB-361; assay: Antitumor activity against human MDA-MB-361 cells assessed as cell growth inhibition treated for 10 to 15 days; format: functional; settings: time 10-15 day
[10] = Antitumor activity against human CADO-ES1 cells assessed as cell growth inhibition treated for 10 to 15 days; format: functional; settings: time 10-15 day
[11] = target: Tyrosine-protein kinase SYK (Homo sapiens) (UniProt P43405); assay: Inhibition of N-terminal GST-tagged full length human SYK (1 to 635 residues) expressed in baculovirus-infected Sf21 cells using Blk/Lyntide as substrate at 1 uM in presence of ATP by Mobility shift assay
[12] = tested on: Daudi; assay: Antitumor activity against human Daudi cells assessed as cell growth inhibition treated for 10 to 15 days; format: functional; settings: time 10-15 day
[13] = tested on: BT-474; assay: Antitumor activity against human BT-474 cells assessed as cell growth inhibition treated for 10 to 15 days; format: functional; settings: time 10-15 day
[14] = target: Eukaryotic translation initiation factor 2-alpha kinase 3 (Homo sapiens) (UniProt Q9NZJ5); assay: Inhibition of N-terminal GST-fused human PEK catalytic domain (536 to 1116 residues) expressed in Escherichia coli expression system using SRPKtide as substrate at 1 uM in presence of ATP by Mobility shift assay
[15] = target: Histone-lysine N-methyltransferase 2C (Homo sapiens, UniProt Q8NEZ4); assay: Inhibition of human MLL3 using Core Histone and [3H]SAM as substrate incubated for 30 mins to 1 hr by HotSpot kinase assay
[16] = target: Ribosomal protein S6 kinase alpha-2 (Homo sapiens) (UniProt Q15349); assay: Inhibition of N-terminal GST-fused human full length RSK3 (1 to 733 residues) expressed in baculovirus expression system using S6K peptide(N-FL) as substrate at 1 uM in presence of ATP by Mobility shift assay
[17] = target: Histone-lysine N-methyltransferase SETD7 (Homo sapiens, UniProt Q8WTS6); assay: Inhibition of human SET7/9 using Core Histone and [3H]SAM as substrate incubated for 30 mins to 1 hr by HotSpot kinase assay
[18] = tested on: HGC-27; assay: Antitumor activity against human HGC-27 cells assessed as cell growth inhibition treated for 10 to 15 days; format: functional; settings: time 10-15 day
[19] = tested on: MCF7; assay: Antitumor activity against human MCF7 cells assessed as cell growth inhibition treated for 10 to 15 days; format: functional; settings: time 10-15 day
[20] = tested on: NCI-H446; assay: Antitumor activity against human NCI-H446 cells assessed as cell growth inhibition treated for 10 to 15 days; format: functional; settings: time 10-15 day
[21] = target: Serine/threonine-protein kinase WNK1 (Homo sapiens) (UniProt Q9H4A3); assay: Inhibition of N-terminal GST-fused human WNK1 catalytic domain (1 to 491 residues) expressed in baculovirus expression system using SPAKtide as substrate at 1 uM in presence of ATP by Mobility shift assay
[22] = target: Histone-lysine N-methyltransferase 2A (Homo sapiens, UniProt Q03164); assay: Inhibition of human MLL1 using Nucleosomes and [3H]SAM as substrate incubated for 30 mins to 1 hr by HotSpot kinase assay
[23] = target: MAP kinase-activated protein kinase 3 (Homo sapiens) (UniProt Q16644); assay: Inhibition of N-terminal GST-fused full length human MAPKAPK3 (1 to 382 residues) expressed in baculovirus expression system using GS peptide as substrate at 1 uM in presence of ATP by Mobility shift assay
MAP kinase-activated protein kinase 3 (Homo sapiens), sequence (Q16644 whole entry, looked up, the tested form may be a part): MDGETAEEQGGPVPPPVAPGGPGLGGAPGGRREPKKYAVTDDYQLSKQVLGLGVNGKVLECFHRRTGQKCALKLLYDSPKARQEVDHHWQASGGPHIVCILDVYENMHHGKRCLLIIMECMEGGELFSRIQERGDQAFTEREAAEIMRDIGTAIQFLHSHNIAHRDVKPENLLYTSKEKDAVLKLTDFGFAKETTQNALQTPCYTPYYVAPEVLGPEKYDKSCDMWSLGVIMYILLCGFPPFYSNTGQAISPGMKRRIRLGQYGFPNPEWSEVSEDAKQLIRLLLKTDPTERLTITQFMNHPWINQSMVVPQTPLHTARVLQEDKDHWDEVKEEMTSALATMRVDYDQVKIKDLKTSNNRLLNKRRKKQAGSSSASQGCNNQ

Interleukin-1 receptor-associated kinase 1 (Homo sapiens), sequence (P51617 whole entry, looked up, the tested form may be a part): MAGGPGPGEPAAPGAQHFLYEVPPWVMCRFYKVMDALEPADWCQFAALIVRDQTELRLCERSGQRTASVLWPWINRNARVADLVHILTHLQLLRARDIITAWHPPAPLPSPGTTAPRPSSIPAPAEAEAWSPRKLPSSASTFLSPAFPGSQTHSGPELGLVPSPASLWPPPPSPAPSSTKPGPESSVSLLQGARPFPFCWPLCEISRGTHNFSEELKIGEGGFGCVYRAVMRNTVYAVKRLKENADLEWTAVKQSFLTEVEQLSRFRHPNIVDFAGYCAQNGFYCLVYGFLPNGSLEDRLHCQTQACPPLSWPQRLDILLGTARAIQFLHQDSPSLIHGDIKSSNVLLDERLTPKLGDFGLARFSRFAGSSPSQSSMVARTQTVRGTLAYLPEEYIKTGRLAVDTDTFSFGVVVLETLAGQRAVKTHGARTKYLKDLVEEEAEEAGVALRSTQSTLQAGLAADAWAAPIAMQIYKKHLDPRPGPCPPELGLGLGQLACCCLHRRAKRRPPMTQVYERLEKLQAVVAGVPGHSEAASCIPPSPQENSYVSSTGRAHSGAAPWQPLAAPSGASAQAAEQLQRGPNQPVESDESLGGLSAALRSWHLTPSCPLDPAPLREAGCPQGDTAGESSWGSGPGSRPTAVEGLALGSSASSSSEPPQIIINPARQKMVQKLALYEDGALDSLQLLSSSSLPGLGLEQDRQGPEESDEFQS
Histone-lysine N-methyltransferase 2A, sequence (Q03164 1-2718 limits assumed): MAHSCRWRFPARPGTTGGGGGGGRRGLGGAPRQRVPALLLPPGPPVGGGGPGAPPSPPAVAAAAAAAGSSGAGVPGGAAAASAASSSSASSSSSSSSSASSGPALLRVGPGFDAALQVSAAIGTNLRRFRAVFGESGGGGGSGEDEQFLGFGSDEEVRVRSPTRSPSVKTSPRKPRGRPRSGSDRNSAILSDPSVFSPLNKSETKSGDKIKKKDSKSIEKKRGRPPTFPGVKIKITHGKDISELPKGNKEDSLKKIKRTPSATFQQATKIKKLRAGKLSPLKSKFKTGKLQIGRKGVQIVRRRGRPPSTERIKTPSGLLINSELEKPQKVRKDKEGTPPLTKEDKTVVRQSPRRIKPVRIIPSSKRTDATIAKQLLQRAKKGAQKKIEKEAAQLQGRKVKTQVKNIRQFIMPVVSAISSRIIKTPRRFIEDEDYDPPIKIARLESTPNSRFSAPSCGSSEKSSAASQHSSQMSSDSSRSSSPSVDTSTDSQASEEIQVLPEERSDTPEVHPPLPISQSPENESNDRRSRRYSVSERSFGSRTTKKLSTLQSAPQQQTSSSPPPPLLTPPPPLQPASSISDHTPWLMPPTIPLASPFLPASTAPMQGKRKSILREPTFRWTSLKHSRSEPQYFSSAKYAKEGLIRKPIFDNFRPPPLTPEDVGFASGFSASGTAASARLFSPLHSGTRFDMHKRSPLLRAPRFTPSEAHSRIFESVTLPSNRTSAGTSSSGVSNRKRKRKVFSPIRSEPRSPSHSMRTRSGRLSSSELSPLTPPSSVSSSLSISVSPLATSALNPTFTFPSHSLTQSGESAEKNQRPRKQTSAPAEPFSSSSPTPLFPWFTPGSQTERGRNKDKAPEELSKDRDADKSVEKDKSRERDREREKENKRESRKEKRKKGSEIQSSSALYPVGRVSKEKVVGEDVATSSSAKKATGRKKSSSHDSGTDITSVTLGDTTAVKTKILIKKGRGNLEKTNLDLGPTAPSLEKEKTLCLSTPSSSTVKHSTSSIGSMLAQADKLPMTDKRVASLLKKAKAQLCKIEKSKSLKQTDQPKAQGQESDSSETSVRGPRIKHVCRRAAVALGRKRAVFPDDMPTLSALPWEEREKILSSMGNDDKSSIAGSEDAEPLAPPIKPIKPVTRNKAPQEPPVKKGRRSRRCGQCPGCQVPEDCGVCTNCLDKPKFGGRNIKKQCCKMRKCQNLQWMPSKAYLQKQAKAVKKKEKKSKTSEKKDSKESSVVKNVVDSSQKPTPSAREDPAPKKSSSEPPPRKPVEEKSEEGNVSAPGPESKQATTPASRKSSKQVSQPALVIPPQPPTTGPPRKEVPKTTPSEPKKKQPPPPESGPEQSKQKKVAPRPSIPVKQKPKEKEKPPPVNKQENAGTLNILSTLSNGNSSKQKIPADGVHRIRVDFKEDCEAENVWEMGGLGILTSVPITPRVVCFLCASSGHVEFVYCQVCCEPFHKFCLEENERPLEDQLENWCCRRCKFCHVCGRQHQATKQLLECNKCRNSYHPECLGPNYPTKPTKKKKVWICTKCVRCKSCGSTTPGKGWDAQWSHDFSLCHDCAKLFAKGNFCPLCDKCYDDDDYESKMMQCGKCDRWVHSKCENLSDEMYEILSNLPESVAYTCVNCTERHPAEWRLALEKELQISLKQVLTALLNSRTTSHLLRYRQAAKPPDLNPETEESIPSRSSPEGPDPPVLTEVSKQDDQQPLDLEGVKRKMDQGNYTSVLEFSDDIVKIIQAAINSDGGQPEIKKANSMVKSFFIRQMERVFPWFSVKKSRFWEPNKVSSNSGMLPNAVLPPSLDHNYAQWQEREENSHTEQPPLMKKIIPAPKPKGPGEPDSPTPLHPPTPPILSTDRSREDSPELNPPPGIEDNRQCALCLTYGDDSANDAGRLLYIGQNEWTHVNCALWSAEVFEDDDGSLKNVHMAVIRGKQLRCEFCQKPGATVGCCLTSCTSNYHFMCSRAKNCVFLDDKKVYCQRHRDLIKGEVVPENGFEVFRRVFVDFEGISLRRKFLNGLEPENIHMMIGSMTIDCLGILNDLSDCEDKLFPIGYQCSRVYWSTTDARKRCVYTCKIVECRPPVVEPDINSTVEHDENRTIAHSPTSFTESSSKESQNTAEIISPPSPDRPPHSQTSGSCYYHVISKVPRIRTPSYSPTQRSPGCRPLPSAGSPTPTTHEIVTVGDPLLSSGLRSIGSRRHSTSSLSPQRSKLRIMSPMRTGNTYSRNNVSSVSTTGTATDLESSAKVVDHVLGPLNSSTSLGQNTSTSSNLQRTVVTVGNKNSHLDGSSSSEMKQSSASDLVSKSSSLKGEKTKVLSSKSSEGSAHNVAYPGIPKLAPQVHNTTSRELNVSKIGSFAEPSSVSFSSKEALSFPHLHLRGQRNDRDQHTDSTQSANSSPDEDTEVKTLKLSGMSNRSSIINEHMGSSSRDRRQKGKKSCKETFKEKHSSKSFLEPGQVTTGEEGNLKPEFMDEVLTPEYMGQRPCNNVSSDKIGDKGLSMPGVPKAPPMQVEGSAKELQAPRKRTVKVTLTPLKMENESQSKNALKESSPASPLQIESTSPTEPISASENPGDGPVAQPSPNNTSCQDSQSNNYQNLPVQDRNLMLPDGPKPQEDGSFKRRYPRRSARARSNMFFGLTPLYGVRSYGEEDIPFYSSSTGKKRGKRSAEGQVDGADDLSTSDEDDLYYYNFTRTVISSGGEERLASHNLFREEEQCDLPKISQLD
Histone-lysine N-methyltransferase 2A, sequence (Q03164 2719-3969 limits assumed): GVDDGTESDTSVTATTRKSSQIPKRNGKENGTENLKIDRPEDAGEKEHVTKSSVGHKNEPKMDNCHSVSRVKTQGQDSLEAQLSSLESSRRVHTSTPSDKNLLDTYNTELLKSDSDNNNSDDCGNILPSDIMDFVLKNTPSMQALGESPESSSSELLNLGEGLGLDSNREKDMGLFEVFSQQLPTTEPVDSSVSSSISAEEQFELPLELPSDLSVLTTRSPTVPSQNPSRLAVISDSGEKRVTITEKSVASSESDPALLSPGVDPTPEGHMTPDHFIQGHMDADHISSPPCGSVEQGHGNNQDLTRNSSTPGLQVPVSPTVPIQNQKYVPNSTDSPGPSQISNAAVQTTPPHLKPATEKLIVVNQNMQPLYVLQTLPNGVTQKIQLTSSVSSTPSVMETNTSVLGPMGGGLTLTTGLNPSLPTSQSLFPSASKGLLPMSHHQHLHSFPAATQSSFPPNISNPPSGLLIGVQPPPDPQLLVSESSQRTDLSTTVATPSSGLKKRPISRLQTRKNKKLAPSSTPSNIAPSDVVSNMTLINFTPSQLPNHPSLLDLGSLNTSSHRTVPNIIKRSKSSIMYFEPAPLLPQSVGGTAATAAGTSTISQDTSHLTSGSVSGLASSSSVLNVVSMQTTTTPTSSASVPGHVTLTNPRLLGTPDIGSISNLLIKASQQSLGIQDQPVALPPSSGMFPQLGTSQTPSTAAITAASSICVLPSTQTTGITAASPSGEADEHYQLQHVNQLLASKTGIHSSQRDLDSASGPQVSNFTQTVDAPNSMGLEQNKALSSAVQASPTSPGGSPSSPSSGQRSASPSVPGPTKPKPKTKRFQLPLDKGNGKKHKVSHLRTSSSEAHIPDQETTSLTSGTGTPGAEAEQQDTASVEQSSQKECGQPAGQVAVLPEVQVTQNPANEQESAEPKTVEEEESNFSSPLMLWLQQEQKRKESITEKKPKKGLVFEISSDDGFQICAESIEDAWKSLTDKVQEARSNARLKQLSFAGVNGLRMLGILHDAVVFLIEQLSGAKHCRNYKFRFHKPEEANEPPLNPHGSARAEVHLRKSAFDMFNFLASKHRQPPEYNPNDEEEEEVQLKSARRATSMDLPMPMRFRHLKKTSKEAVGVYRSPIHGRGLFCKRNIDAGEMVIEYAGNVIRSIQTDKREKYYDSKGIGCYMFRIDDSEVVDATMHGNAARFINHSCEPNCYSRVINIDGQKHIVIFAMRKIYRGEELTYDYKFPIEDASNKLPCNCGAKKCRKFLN

Compound: Cc1cc(C)c(CNC(=O)c2cc(Br)c3c(c2C)O[C@@](C)([C@H]2CC[C@H](N(C)C)CC2)O3)c(=O)[nH]1
- inhibition [1]: -9.5%
- inhibition [2]: 22.3%
- inhibition [3]: -4.5%
- Activity [4]: 16.8 mg/dL
- Activity [5]: Toxic

Compound: Cc1cc(C)c(CNC(=O)c2cc(Cl)c3c(c2C)O[C@@](C)([C@H]2CC[C@H](N(C)C)CC2)O3)c(=O)[nH]1 [VALEMETOSTAT]
- GI50 [6]: 21 nM
- GI50 [7]: > 1000 nM
- IC50 [8]: 100000 nM
- GI50 [9]: 109 nM
- GI50 [10]: 952 nM
- inhibition [11]: -8.4%
- GI50 [12]: > 1000 nM
- GI50 [13]: > 1000 nM
- inhibition [14]: -9.8%
- IC50 [15]: 100000 nM
- inhibition [16]: -3.9%
- IC50 [17]: 100000 nM
- GI50 [18]: > 1000 nM
- GI50 [19]: > 1000 nM
- GI50 [20]: 124 nM
- inhibition [21]: 3.4%
- IC50 [22]: 100000 nM
- inhibition [23]: -9.3%

Source: ChEMBL document CHEMBL5647694, “Novel orally bioavailable EZH1/2 dual inhibitors with greater antitumor efficacy than an EZH2 selective inhibitor” (Cancer Sci, 2017)
